≈ marks a conversion by molar mass, not a printed value. Where “and” joins values, the source holds several entries; their conditions need not be identical. Equal entries are not always repeated. Where two headings read alike, the source gives them in different places.
How the values were obtained:
[1] = molecular target: S. aureus STKK1 (the soluble kinase domain of STK1, 280 aa) (Staphylococcus aureus, UniProt A0ABF7PGK0); experiment: In vitro kinase assay: inhibition of autophosphorylation of recombinant STKK1 (γ32P-ATP); format: biochemical; settings: after 5 min pre-incubation
Procedure: For the present study, recombinant His-tag-STKK1 was created along with part of the adjacent juxta-membrane domain (1-280 aa) using the pET14b vector system and specific primers (Table-1 and Table-2) as described previously. The recombinant proteins were expressed in BL21 DE3 (pLysS) and purified using Ni^+2-NTA-affinity chromatography, dialyzed against 10 mM Tris/HCl, pH 7.5, and stored as 10% glycerol stock (500 μg/ml) at −20° C. as described previously. In vitro kinase assays were performed using 2 μg STKK1 in the presence of 1 μCi γ^32P-ATP (specific activity 3000 Ci/mMol, PerkinElmer) at 30° C. for 45 min in a final volume of 30 μl phosphorylation buffer (50 mM Tris/HCl, pH7.5, 1 mM dithiothreitol, 5 mM MgCl2, and/or 5 mM MnCl2). The inhibition of autophosphorylation of STKK1 was carried out using this assay in the presence and absence of (50 μM) individual members of the 32 prescreened small molecule compound library. Phosphorylated proteins were separated by SDS-PAGE and subsequently identified by using Coomassie stain and autoradiography. The individual phosphorylated protein bands were then excised and subjected to radioactive counting using beta-scintillation counter for quantitative analysis. Experiments were repeated at least three times for statistical analysis.

S. pyogenes SP-STK = experiment: In vitro autophosphorylation / kinase activity of SP-STK; format: biochemical; settings: at 116 μM
S. aureus MW2 = experiment: Broth dilution susceptibility / growth inhibition assay, Muller Hinton broth; format: cell-based, Staphylococcus aureus; settings: Staphylococcus aureus
Procedure: (§1) Subsequently, the susceptibility of S. aureus MW2 strain to Ceftriaxone, Cefotaxime, Inh2, and Inh2-B1 was confirmed by the CLSI recommended serial dilution method using Muller Hinton broth. Minimum bactericidal activity (MBC) was measured using Muller-Hinton agar. Changes in the MBC of Ceftriaxone/Cefotaxime in the presence of serially diluted Inh2-B1 was determined in two steps. Initial screening was carried out using the Checkerboard method using Muller-Hinton agar (FIG. 15). […] Subsequent time to kill assays were carried out using 50 μM Inh2-B1 and Ceftriaxone. Cefotaxime (1 μg/ml) in a final volume of 250 μl using a sterile 96-well (U-bottom) microtiter plate over a period of 16 h at 37° C. under constant rotation (120 rpm). Optical density and corresponding CFU counts were measured at every two-hour interval up to 8 hours with a final overnight reading at the end of incubation period. CFU counts were measured using appropriate dilution of 10 μl of properly mixed samples at each time interval. All experiments were performed in three biological replicates and the statistical analysis of the results obtained at each time point was carried out by the non-parametric t-test with Welch's correction using GraphPad Prism 6 software.

S. aureus STK1 / STKK1 = experiment: Solid-phase ATP affinity chromatography, elution of bound kinase by inhibitor, Western blot; format: binding; settings: eluted with 50 μM inhibitor, anti-STK1 immunoblot
Procedure: (§2) An overnight culture of S. aureus MW2 strain was centrifuged, and the resulting bacterial pellet was resuspended in lysostaphin digestion buffer (50 mM Tris/HCl buffer, pH 7.5, containing 5 μg/ml DNAse/RNAse and protease inhibitor cocktail) in 1/10 the volume of the original culture volume. The latter was then subjected to lysostaphin treatment (15 U/ml). The lysostaphin digest was sonicated (5 sec pulse at every 10 sec for 10 min at 50% of 130 W, […]), and the debris free whole cell lysate was obtained after centrifugation (10.000×g, 10 min, 4° C.). […] The column was then washed with ten column volumes of binding buffer. Subsequently, the bound proteins were eluted with the 10-column volume of buffer containing 50 μM Inh-2 and Inh2-B1. S. aureus crude lysate, the last fraction of the column washing step, and eluted fractions were resolved by SDS-PAGE and electroblotted onto a PVDF membrane. […] A similar experiment was performed using S. pyogenes whole cell lysates obtained from phage lysin-digested S. pyogenes M1T1 strain using the anti-SP-STK antibody as described previously using to determine the specificity of the inhibitor for S. aureus STK1.

[2] = system: S. pyogenes SP-STK / SP-STKK; experiment: as above; format: binding; settings: 50 μM inhibitor
Procedure: as §2

[3] = system: cell wall hydrolase genes in S. aureus MW2-WT; experiment: qRT-PCR mRNA expression of cell wall hydrolase genes; format: cell-based, Staphylococcus aureus; settings: treated MW2-WT vs untreated
Procedure: The late log phase-grown S. aureus strains MW2 wild-type, and isogenic ΔSTK1 and ΔSTP1 mutant strains, as well as S. aureus MW2 strain treated with 25 μM Inh2-B1 for 4 h, were subjected to lysostaphin treatment to obtain whole cell lysate. Total RNA from the resulting lysate was first extracted by TRIZOL™ (Invitrogen/Thermo) and treated with RNase-free DNaseI. High-quality total RNA (RIN>7.0, and 260/280 and 260/230 ratios >1.8) was then extracted by using RNA purification kit (Norgen, Canada) per manufacturer's instructions and confirmed by an Agilent 2100 Bioanalyzer (Agilent Technologies, Palo Alto, Calif.). The first-strand cDNA from the total RNA was generated, and relative mRNA concentration was quantitated using SYBR Green qRT-PCR master mix and specific primers, using a Light Cycler® 480 real-time PCR machine (Table 2). The results obtained for all samples (three biological replicates each in triplicates) were normalized to corresponding values of 16S rRNA. All results including relative fold-changes in the mRNA expression (mutant vs. wild-type or treated vs. nontreated) for individual genes were analyzed using Exor4 software (Roche Applied Science). Changes in expression ratios by more than 2-fold (up- or down-regulation) were considered as significant.

S. aureus MW2-WT [4] = experiment: microbe, parasite or virus in culture; format: cell-based, Staphylococcus aureus; settings: Staphylococcus aureus, MW2WT
[5] = system: S. aureus MW2ΔSTK1 mutant; experiment: E-test antibiotic susceptibility (MIC), Muller-Hinton agar; format: cell-based; settings: Staphylococcus aureus
[6] = system: S. aureus MW2ΔSTP1 mutant; experiment: as above; format: cell-based; settings: Staphylococcus aureus
S. aureus MW2 wild-type [7] = experiment: Checkerboard titration end-point bactericidal assay (MBC), Muller-Hinton agar; format: cell-based, Staphylococcus aureus; settings: for MBC: Staphylococcus aureus, MW2WILDTYPE
Procedure: FIGS. 15A-15B show checkerboard assays for determining bactericidal assay. Serial two-fold dilutions of 2 mM of Inh2-B1 (MW=411.58 g/mol) and (A) 3 mM ceftriaxone (MW=669.7 g/mol) were made in two separate 96-well plates in vertical (B1-B12 to H1-H2 wells) and horizontal (A2-H2 to A12-H12 wells) directions respectively. Serially diluted Inh2-B1 (100 μL) in the individual well was then mixed with the 100 μL serially diluted ceftriaxone present in the corresponding wells. The resulting various combinations of Inh2-B1 (starting from 1 mM) and ceftriaxone (starting from 1.5 mM) or cefotaxime (2.1 mM) as well as serially diluted one Inh2-B1 (B1 to H1) and ceftriaxone (A2-A12) or cefotaxime (A2-A12) were then incorporated in Muller-Hinton mini agar plates (2 mL). The agar plates were then seeded and diluted S. aureus MW2-wild-type culture equivalent to approximately 23±3 CFU. This checkerboard assay was used to determine the ideal combination of lowest concentration of Inh2-B1 and ceftriaxone that kills 99.9% of the wild-type MW2.
(§3) Since the STK1 is not essential for bacterial survival and its absence results in retardation of growth, an end-point bactericidal assay was done, employing the Checkerboard titration method followed by a time-to-kill assay using the broth dilution method. The 96-well plate-based checkerboard titration assays were performed using the fixed number of CFUs of MW2 strain, and the survival of the bacteria was measured on solid agar plates as an end-point result. […] The cut-off value to designate clinical isolates of S. aureus for antibiotics, including Ceftriaxone (TX) and Cefotaxime (CT) as susceptible, is less than 4 μg/ml (i.e., <4.8 μM of TX, and <7 μM of CT). […] CFU counts of MW2-WT grown in the presence of various concentrations of Inh2-B1 were examined over a period of 16 h. […] Similarly, it was also determined CFU counts of MW2-WT and MW2ΔSTK1 strains each grown in the absence or the presence of 50 μM of Inh2-B1 and 1.5 μM Ceftriaxone (1 μg/ml) or […] Cefotaxime (1 μg/ml) for 16 h employing the broth dilution method. […] Further, to address whether MW2 or STK1 could become refractory to a potential combined therapy, the S. aureus MW2 wild-type strain was grown in the presence of suboptimal dose of Inh2-B1 alone and combination with Ceftriaxone and Cefotaxime (25 μM Inh2-B1 and 3 μM of Ceftriaxone or 3 μM Cefotaxime) for consecutive 10 generations.
as §1, with “interval.” for “interval. All experiments were performed in three biological replicates and the statistical analysis of the results obtained at each time point was carried out by the non-parametric t-test with Welch's correction using GraphPad Prism 6 software.”

S. aureus MW2-WT [8] = experiment: Time-to-kill assay (OD and CFU counts over 16 h), broth dilution; format: cell-based, Staphylococcus aureus; settings: only 50 μM Inh2-B1, only 1.5 μM Ceftriaxone (1 μg/ml) or only 3 μM Cefotaxime (1 μg/ml), 16 h
Procedure: (§4) FIGS. 4A-F show. […] Optical Density and corresponding Colony forming units of (C and D) MW2-WT and (E and F) MW2ΔSTK1 cultures in the presence or absence 50 μM Inh2-B1, 1.51 μM (1 μg/ml) Ceftriaxone, 2.125 μM (1 μg/ml) Cefotaxime, and combination of Inh2-B1 plus Ceftriaxone, and Inh2-B1 plus Cefotaxime. The experiments were carried out as described in the Materials and Method section using Muller-Hinton broth and seeded with 4×10^6 CFUs of S. aureus MW2-Wild type or MW2ΔSTK1 strains per well. Each data points represent Mean±S.D. P values of significance (**=<0.01, ***=<0.001) were determined using the t-test with Welch's corrections. NS—Not significant.
as §1

S. aureus MW2ΔSTK1 = experiment: as above; format: cell-based, Staphylococcus aureus; settings: in the presence of Ceftriaxone (1 μg/ml)
Procedure: as §4, §1

S. aureus MW2 wild-type [9] = experiment: Serial passage at suboptimal dose (10 generations), stk1 PCR and DNA sequencing; format: cell-based, Staphylococcus aureus; settings: in the presence of 50 μM Inh2-B1
Procedure: as §3

Chain of S. aureus STKK1 (the soluble kinase domain of STK1, 280 aa) (A0ABF7PGK0 entry or part of it): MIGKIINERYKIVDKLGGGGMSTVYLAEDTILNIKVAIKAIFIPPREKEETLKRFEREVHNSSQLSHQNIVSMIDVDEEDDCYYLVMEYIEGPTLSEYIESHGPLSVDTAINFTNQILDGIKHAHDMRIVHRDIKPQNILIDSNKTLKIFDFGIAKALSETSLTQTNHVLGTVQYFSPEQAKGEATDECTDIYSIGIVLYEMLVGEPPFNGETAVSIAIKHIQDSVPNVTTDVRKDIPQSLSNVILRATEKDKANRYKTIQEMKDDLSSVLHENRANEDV

Compound	IC50 [1] [µM]	inhibition of autophosphorylation of S. pyogenes SP-STK (S. pyogenes SP-STK)	IC50 (S. aureus MW2; MW2, read-out: IC50 concentration for MW2) [µM]	MIC (S. aureus MW2; MW2, read-out: minimum inhibitory concentration) [µM]	elution of STK1 bound to ATP-column, whole cell lysate of S. aureus MW2 (S. aureus STK1 / STKK1)	elution of SP-STK bound to ATP-column, S. pyogenes whole cell lysate [2]	expression of cell wall hydrolase-encoding genes [3]	MIC (S. aureus MW2-WT [4]) [µg/mL]	MIC [5] [µg/mL]	MIC [6] [µg/mL]	MBC (S. aureus MW2 wild-type [7]; agent alone, MW2, read-out: Minimum bactericidal concentration (MBC))	MBC (S. aureus MW2 wild-type [7]; in the presence of 50 μM of Inh2-B1, read-out: MBC for MW2 in the presence of Inh2-B1)	concentration up to which growth of MW2 was seen (S. aureus MW2 wild-type [7]; agent alone, further analysis) [µM]	concentration of wells with ≥1 CFU of wild-type MW2 (S. aureus MW2 wild-type [7]; checkerboard, agent alone) [µM]	fold reduction of MBC (S. aureus MW2 wild-type [7]; in the presence of 50 μM of Inh2-B1 vs antibiotic alone) [fold]	growth pattern of the wild-type, single agent (S. aureus MW2-WT [8])	growth of MW2ΔSTK1 (S. aureus MW2ΔSTK1)	bactericidal activity against the passaged strain (S. aureus MW2 wild-type [9])
Cc1ccc(NC(=O)c2sc(=S)n3c2[nH]c(=O)c2ccccc23)c(C)c1 [Inh2, N-(2,4-Dimethylphenyl)-5-oxo-1-thioxo-4,5-dihydro[1,3]thiazolo[3,4-a]quinazoline-3-carboxamide]	24.5	did not inhibit autophosphorylation	12	48	presence of STK1	did not elute	down-regulation of cell wall hydrolase-encoding genes	–	–	–	–	–	–	–	–	–	–	–
CO/N=C(\C(=O)N[C@@H]1C(=O)N2C(C(=O)O)=C(CSc3nc(=O)c(=O)[nH]n3C)CS[C@H]12)c1csc(N)n1 [Ceftriaxone]	–	–	–	–	–	–	–	> 100	4 (≈ 7.21 µM)	> 100	151 µM and 100 µg/mL	0.59 µM and 0.39 µg/mL	125	≤ 75.00	256	remained unaltered	reduced significantly	remained intact
